Measured values as given in patent US10913773B2, “Bicyclic peptidyl inhibitor of tumor necrosis factor-alpha” (Ohio State Innovation Foundation, priority 2016, dated 2021).
Values belong to the molecule of their own block, whether it stands above or below them. Starred links: 1 amine or outer side, 2 acyl side, 3 side chain; linkers in the order of their positions; H or OH if unused. Positions of bridges follow the written chain, without caps; N, C: chain ends. Non-standard residues stand in square brackets, D forms with d. Residues, ends and D or L forms follow the SMILES beside them. *: point of attachment. Trimesoyl = O=C(c1cc(C(=O)[*:2])cc(C(=O)[*:3])c1)[*:1]; NH(1S,2S-2-CONH2-cPent) = NC(=O)[C@H]1CCC[C@@H]1N*; 3Abz = Nc1cccc(C(=O)O)c1; Nle = CCCC[C@H](N)C(=O)O; Dap = NC[C@H](N)C(=O)O; βAla = NCCC(=O)O

Assays:
TNFα = molecular target: T1, TNFα (Homo sapiens, UniProt P01375); test: Fluorescence anisotropy (FA) binding of fluorescently labeled bicyclic peptides to TNFα
T1 construct: ybbR tag (13 aa) (N); made in house; host or cells: Escherichia coli
Experimental: FITC-labeled bicyclic peptide (50 or 100 nM) were incubated with varying concentrations of TNFα (0-5 μM) in 30 mM HEPES, pH 7.4, 150 mM NaCl, and 2 mM magnesium acetate for 2 h. The FA values were measured on a Molecular Devices Spectramax M5 spectrofluorimeter, with excitation and emission wavelengths at 485 and 525 nm, respectively. Equilibrium dissociation constants (KD) were determined by plotting the FA values as a function of TNFα concentration and fitting the data to the following equation
[formula] where Y is the measured anisotropy at a given TNFα concentration x; L is the bicyclic peptide concentration; Qb/Qf is the correction fact for dye-protein interaction; Amax is the maximum anisotropy when all the peptides are bound to TNFα, while Amin is the minimum anisotropy. Competition experiments were performed by incubating 100 nM Asn-Asn-Asn-Lys(FITC)-labeled anticachexin C1 (Table 1), 2 μM of TNFα, and varying concentrations of unlabeled competitor peptide (0-20 μM) in the above buffer for 2 h. The FA values were plotted against the competitor peptide concentration to determine the IC50 values.
To identify residues significant for TNFα binding, each residue of anticachexin C1 (other than D-alanine at position-3, L-lysine at position-4, and L-2,3-diaminopropionic acid (Dap) at position-10) was individually replaced with an alanine (or D-alanine). To facilitate binding analysis by fluorescence anisotropy (FA), a tetrapeptide NNNK (SEQ ID NO: 1) was added to the C-terminus of each bicyclic peptide and the lysine side chain was labeled with fluorescein isothiocyanate (FITC) during solid-phase synthesis (Scheme 1). The three asparagine residues were added to improve the aqueous solubility of the bicyclic peptides. The bicyclic peptide was prepared by first synthesizing the full-length linear sequence on Rink amide resin using standard Fmoc/HBTU chemistry. The side chains of the two internal cyclization residues, L-lysine and Dap, were protected with monomethoxytrityl (Mmt) groups, whereas the C-terminal lysine was protected with an allyloxycarbonyl (Alloc) group. After removal of the N-terminal Fmoc group, a trimesic acid was coupled to the N-terminal amine using HBTU as the coupling agent. Next, the Mmt groups were selectively removed from the Lys and Dap side chains by 2% TFA and the peptide was cyclized by treatment with (benzotriazol-1-yloxy)tripyrrolidinophosphonium hexafluorophosphate (PyBOP). The Alloc group on the C-terminal lysine side chain was removed by treatment with Pd(PPh3)4 and the bicyclic peptide was selectively labeled at the C-terminal lysine by treating the resin with FITC. […] On the other hand, phenylglycine (Phg)-1 and glycine-7 play more minor roles in binding.

TNFα-TNFR1 interaction = molecular target: T2, TNFα-TNFR1 interaction (Homo sapiens, UniProt P01375); test: ELISA inhibition of TNFα-TNFR1 interaction (immobilized biotinylated TNFα, TNFR1-HRP); type: binding
T2 construct: made in house; host or cells: Escherichia coli (TNFα)
Experimental: Inhibition of TNFα-TNRF1 interaction by ELISA was carried out as previously described (Lian, W.; et al., supra).
Because of its high-throughput capability, FA analysis had been used to generate all of the SAR data described above. […] To confirm the SAR data obtained by FA analysis, some of the compounds in Table 5 (as well as new compounds) were resynthesized without the Lys(FITC) label and employed a more sensitive ELISA-based assay to determine the IC50 values for inhibition of the TNFα-TNFR1 interaction. Briefly, biotinylated TNFα was immobilized onto a NeutrAvidin-coated surface. TNFR1 conjugated with horseradish peroxidase (HRP) (0.5 nM) was added along with different concentrations of a peptide inhibitor. After washing, the amount of bound TNFR1-HRP was quantitated by ELISA. […] In agreement with the FA results, either extension at the C-terminus of β-Ala with another amino acid (C1-67 to C1-70) or side-chain modification of β-Ala (C1-71 to C1-73) decreased TNFα binding.

[1] = inhibition of TNFα-TNFR1 interaction, unlabeled peptides
[2] = Table 5, peptides without Lys(FITC) label

SMILES: CCCC[C@@H]1NC(=O)c2cc3cc(c2)C(=O)NC[C@@H](C(=O)N[C@@H](CCCCNC(=S)Nc2ccc4c(c2)C(=O)OC42c4ccc(O)cc4Oc4cc(O)ccc42)C(N)=O)NC(=O)[C@H](Cc2c[nH]cn2)NC(=O)[C@@H](CCCCN)NC(=O)CNC(=O)[C@@H](Cc2ccccc2)NC(=O)[C@H](Cc2ccc(O)cc2)NC(=O)[C@H](CCCCNC3=O)NC(=O)[C@@H](C)NC(=O)[C@H](Cc2ccc(O)cc2)NC1=O [Compound C1-5]
- Increase of TNFα binding affinity (fold) (TNFα; relative to comparator analogue named in text): ~2 fold

SMILES: CCCC[C@@H]1NC(=O)c2cc3cc(c2)C(=O)NC[C@@H](C(=O)N2CCC[C@@H](C(=O)NCCOCCOCC(=O)N[C@@H](CCCCNC(=S)Nc4ccc5c(c4)C(=O)OC54c5ccc(O)cc5Oc5cc(O)ccc54)C(N)=O)C2)NC(=O)[C@H](Cc2c[nH]cn2)NC(=O)[C@@H](CCCCN)NC(=O)CNC(=O)[C@@H](Cc2c[nH]cn2)NC(=O)[C@H](Cc2c[nH]c4ccccc24)NC(=O)[C@H](CCCCNC3=O)NC(=O)[C@@H](CO)NC(=O)[C@H](Cc2ccc(O)cc2)NC1=O [Compound C1-64]
- Kd (TNFα; Table 5, residue 11 variants with Lys(FITC)): 0.34 ± 0.23 µM

SMILES: CCCC[C@@H]1NC(=O)c2cc3cc(c2)C(=O)NC[C@@H](C(=O)Nc2cccc(C(N)=O)c2)NC(=O)[C@H](Cc2c[nH]cn2)NC(=O)[C@@H](CCCCN)NC(=O)CNC(=O)[C@@H](Cc2c[nH]cn2)NC(=O)[C@H](Cc2c[nH]c4ccccc24)NC(=O)[C@H](CCCCNC3=O)NC(=O)[C@@H](CO)NC(=O)[C@H](Cc2ccc(O)cc2)NC1=O [Compound C1-73] ([Nle]Y[dS]KW[dH]G[dK]H[Dap][3Abz]-NH2; linker N-4-10 via Trimesoyl)
- IC50 (TNFα-TNFR1 interaction; [2]): 1.7 ± 0.7 µM

SMILES: CC(=O)[C@@H](Cc1ccc(O)cc1)NC(=O)[C@@H](CC(=O)O)NC(=O)C(N)CC(=O)O (stereo partly shown) [Compound C1-74-5]
- IC50 (TNFα-TNFR1 interaction; [1]): 1.35 ± 0.49 µM

Second part, the molecule after the results:

- IC50 (TNFα-TNFR1 interaction; [1]): 0.085 µM
SMILES: CCCC[C@@H]1NC(=O)c2cc3cc(c2)C(=O)NC[C@@H](C(=O)NCCC(N)=O)NC(=O)[C@H](Cc2c[nH]cn2)NC(=O)[C@@H](CCCCN)NC(=O)CNC(=O)[C@@H](Cc2c[nH]cn2)NC(=O)[C@H](Cc2c[nH]c4ccccc24)NC(=O)[C@H](CCCCNC3=O)NC(=O)[C@@H](CO)NC(=O)[C@H](Cc2ccc(O)cc2)NC1=O [Compound C1-66] ([Nle]Y[dS]KW[dH]G[dK]H[Dap][βAla]-NH2; linker N-4-10 via Trimesoyl)

- IC50 (TNFα-TNFR1 interaction; [2]): 0.11 ± 0.03 µM
SMILES: CCCC[C@@H]1NC(=O)c2cc3cc(c2)C(=O)NC[C@@H](C(=O)N[C@H]2CCC[C@@H]2C(N)=O)NC(=O)[C@H](Cc2c[nH]cn2)NC(=O)[C@@H](CCCCN)NC(=O)CNC(=O)[C@@H](Cc2c[nH]cn2)NC(=O)[C@H](Cc2c[nH]c4ccccc24)NC(=O)[C@H](CCCCNC3=O)NC(=O)[C@@H](CO)NC(=O)[C@H](Cc2ccc(O)cc2)NC1=O [Compound C1-72] ([Nle]Y[dS]KW[dH]G[dK]H[Dap]-{NH(1S,2S-2-CONH2-cPent)}; linker N-4-10 via Trimesoyl)

- IC50 (TNFα-TNFR1 interaction; [2]): 1.5 ± 0.9 µM
SMILES: CCCC[C@@H]1NC(=O)c2cc3cc(c2)C(=O)NC[C@@H](C(=O)NCCC(=O)NCCC(N)=O)NC(=O)[C@H](Cc2c[nH]cn2)NC(=O)[C@@H](CCCCN)NC(=O)CNC(=O)[C@@H](Cc2c[nH]cn2)NC(=O)[C@H](Cc2c[nH]c4ccccc24)NC(=O)[C@H](CCCCNC3=O)NC(=O)[C@@H](CO)NC(=O)[C@H](Cc2ccc(O)cc2)NC1=O [Compound C1-67] ([Nle]Y[dS]KW[dH]G[dK]H[Dap][βAla][βAla]-NH2; linker N-4-10 via Trimesoyl)
